From patent US4215215A, “9-Phenyl-nonate traene compounds” (Hoffmann-La Roche Inc., priority 1979, dated 1980) come the findings set out here.

In general, LD50 refers to the dose expected to kill half of the subjects tested.

A short description of one data set: in vivo. The settings on record: mouse, ip, mice; for LD50 at 24 h: After 1 day; for LD50 at 24 h / LD50 at 240 h / LD50 at 480 h: intraperitoneal, in rape-oil; for LD50 at 240 h: After 10 days; for LD50 at 480 h: After 20 days; for LD50: intraperitoneal administration in rape-oil, no time stated, read-out: acute toxicity [LD50].
A further data set relates to papillomas. In words: Papilloma test (tumors induced with dimethylbenzanthracene and croton oil). The format is in vivo. The note with it: intraperitoneal, within 2 weeks. The text has this: The compounds of formula I are effective for utilizing tumors such as papillomas. In the papilloma test, tumors induced with dimethylbenzanthracene and croton oil regress. The diameters of the papillomae decline within 2 weeks on intraperitoneal administration.

Consider `COc1cc(C)c(C=CC(C)=CC=CC(C)=CC(=O)O)c(C)c1C` [Substance A, 9-(4-methoxy-2,3,6-trimethyl-phenyl)-3,7-dimethyl-nona-2,4,6,8-tetraen-1-oic acid], for which, in “in vivo”, the LD50 at 24 h is > 4000 mg/kg, the LD50 at 240 h was 700 mg/kg, the LD50 at 480 h turned out to be 700 mg/kg and the LD50 turned out to be 700 mg/kg. For the same compound, the “decline of the diameters of the papillomae” value (“decline” below) with papillomas (50 mg/kg/week) turned out to be 38%. The “decline” value in the data set with papillomas (100 mg/kg/week) was 69%.

Turning to `CCOC(=O)C=C(C)C=CC=C(C)C=Cc1c(C)cc(OC)c(C)c1C` [Substance B, 9-(4-methoxy-2,3,6-trimethyl-phenyl)-3,7-dimethyl-nona-2,4,6,8-tetraen-1-oic acid ethyl ester], in the data set “in vivo”, the LD50 at 24 h is > 4000 mg/kg, the LD50 at 240 h was 1900 mg/kg, the 50% lethal dose (LD50) at 480 h came to 1000 mg/kg and the LD50 amounted to 1000 mg/kg. For the same compound, the “decline” value in the data set on papillomas (25 mg/kg/week) is on record as 45%. Further, the “decline” value in the data set on papillomas (50 mg/kg/week) worked out at 63%.
